Results on ten compounds are retold here after patent US12404239B2, “Modulators of BCL6 as ligand directed degraders” (Celgene Corporation, priority 2022, dated 2025).

The target of one test is T1, BCL6 (Homo sapiens, UniProt P41182).
T1 construct: HiBiT-tag knocked into endogenous BCL6 locus using CRISPR; endogenous in cells; host or cells: DHL-4_BCL6_HiBiT cells (CRISPR knock-in)
The test can be described thus: 24 h degradation assay (BCL6 HiBiT). The class given is cell-based. Particulars: read-out: YCon (% remaining maximal effect). As to the method:
A DHL-4 cell line with HiBiT-tag knocked into endogenous BCL6 locus using CRISPR was generated. The DHL-4_BCL6_HiBiT cells were dispensed into 384-well plates (Corning no. 3570) that were pre-spotted with compounds. Compounds were dispensed by an acoustic dispenser (ATS acoustic transfer system from EDC Biosystems) into a 384-well plate in a 10-point dose response curve using 3-fold dilutions starting at 1-10 μM and going down to 0.0015-0.00015 μM. 25 μL of media (RPMI-1640+10% heat inactivated FBS+1×Pen/Strep) containing 2500 of DHL-4 was dispensed per well. […] After incubation, 25 μL of the Nano-Glo HiBiT lytic detection working solution (Promega, catalogue no. N3040, Madison, WI) was added to each well and incubated at room temperature for 15-30 min, protected from light. After 30 min, luminescence was read on an Envision or PHERAstar luminescence reader. To determine the EC50 value (the half-maximum effective concentration) and the level of the gradation (Yconstant) of a BCL6 degrader, luminescent signal normalized by DMSO control (Y) and compound concentration (x) was fitted using a four-parameter dose-response model (Y=(A+((B−A)/1+((C/x)^D) in Dotmatics. Fitted value C is the degradation EC50 and the minimum value A is the Y constant.
`CO[C@@H]1CN(c2ncc(C#N)c(Nc3ccc4c(c3)CC(=O)N4C)n2)CC[C@H]1Nc1ccc2c(C3CCC(=O)NC3=O)nn(C)c2c1` (stereo partly drawn) [Example 145, 2-((3R,4R)-4-((3-(2,6-dioxopiperidin-3-yl)-1-methyl-1H-indazol-6-yl)amino)-3-methoxypiperidin-1-yl)-4-((1-methyl-2-oxoindolin-5-yl)amino) pyrimidine-5-carbonitrile]: the Emax is 20 to 60%. The same measure, in the same setting: with `C[C@@H]1C[C@H](N(C)c2ncc(Cl)c(Nc3ccc4c(c3)CC(=O)N4C)n2)CC(=O)N1c1ccc2c(C3CCC(=O)NC3=O)nn(C)c2c1` (stereo partly drawn) [Example 150, 3-(6-((2R,4S)-4-((5-chloro-4-((1-methyl-2-oxoindolin-5-yl)amino)pyrimidin-2-yl)(methyl)amino)-2-methyl-6-oxopiperidin-1-yl)-1-methyl-1H-indazol-3-yl) piperidine-2,6-dione] the figure was 20 to 60%; with `C[C@@H]1C[C@@H](N(C)c2ncc(Cl)c(Nc3ccc4c(c3)CC(=O)N4C)n2)CC(=O)N1c1ccc2c(C3CCC(=O)NC3=O)nn(C)c2c1` (stereo partly drawn) [Example 151, 3-(6-((2R,4R)-4-((5-chloro-4-((1-methyl-2-oxoindolin-5-yl)amino)pyrimidin-2-yl)(methyl)amino)-2-methyl-6-oxopiperidin-1-yl)-1-methyl-1H-indazol-3-yl) piperidine-2,6-dione], under 20%; with `C[C@H]1C[C@@H](N(C)c2ncc(Cl)c(Nc3ccc4c(c3)CC(=O)N4C)n2)CC(=O)N1c1ccc2c(C3CCC(=O)NC3=O)nn(C)c2c1` (stereo partly drawn) [Example 152, 3-(6-((2S,4R)-4-((5-chloro-4-((1-methyl-2-oxoindolin-5-yl)amino)pyrimidin-2-yl)(methyl)amino)-2-methyl-6-oxopiperidin-1-yl)-1-methyl-1H-indazol-3-yl) piperidine-2,6-dione], over 60%. As to `C[C@H]1C[C@H](N(C)c2ncc(Cl)c(Nc3ccc4c(c3)CC(=O)N4C)n2)CC(=O)N1c1ccc2c(C3CCC(=O)NC3=O)nn(C)c2c1` (stereo partly drawn) [Example 153, 3-(6-((2S,4S)-4-((5-chloro-4-((1-methyl-2-oxoindolin-5-yl)amino)pyrimidin-2-yl)(methyl)amino)-2-methyl-6-oxopiperidin-1-yl)-1-methyl-1H-indazol-3-yl) piperidine-2,6-dione], the Emax was under 20%.

The target in another test is T1, BCL6. The test can be described thus: BCL6_HiBiT degradation assay (2 h). Particulars: DHL-4_BCL6_HiBiT cells, read-out: YCon (% remaining maximal effect). It is filed as cell-based. Put shortly: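 DHL-4 cells carrying CRISPR HiBiT knock-in at endogenous BCL6, treated 2 h at 37 °C with 10-point 3-fold dilutions from 1-10 μM. BCL6 level read by Nano-Glo HiBiT lytic luminescence normalized to DMSO; four-parameter fit gives degradation EC50 and Yconstant (% remaining at maximal effect).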
Regarding `CO[C@@H]1CN(c2ncc(C#N)c(Nc3ccc4c(c3)CC(=O)N4C)n2)CC[C@H]1Nc1ccc2c(C3(C)CCC(=O)NC3=O)nn(C)c2c1` (stereo partly drawn) [Example 155, 2-((3R,4R)-3-methoxy-4-((1-methyl-3-(3-methyl-2,6-dioxopiperidin-3-yl)-1H-indazol-6-yl)amino)piperidin-1-yl)-4-((1-methyl-2-oxoindolin-5-yl)amino) pyrimidine-5-carbonitrile], the Percent BCL6 remaining at maximal degradation (Ycon) was in the range of 20 to 60%. Turning to `CO[C@@H]1CN(c2ncc(Cl)c(Nc3ccc4c(c3)CC(=O)N4C)n2)CC[C@H]1Nc1ccc2c(N3CCC(=O)NC3=O)nn(C)c2c1` [Example 156, 1-(6-(((3R,4R)-1-(5-chloro-4-((1-methyl-2-oxoindolin-5-yl)amino)pyrimidin-2-yl)-3-methoxypiperidin-4-yl)amino)-1-methyl-1H-indazol-3-yl) dihydropyrimidine-2,4(1H,3H)-dione], the Percent BCL6 remaining at maximal degradation (Ycon) lay within 20 to 60%. Same read-out and setting: for `CO[C@@H]1CN(c2ncc(C#N)c(Nc3ccc4c(c3)CC(=O)N4C)n2)CC[C@H]1Nc1ccc2c(N3CCC(=O)NC3=O)nn(C)c2c1` [Example 157, 2-((3R,4R)-4-((3-(2,4-dioxotetrahydropyrimidin-1(2H)-yl)-1-methyl-1H-indazol-6-yl)amino)-3-methoxypiperidin-1-yl)-4-((1-methyl-2-oxoindolin-5-yl)amino) pyrimidine-5-carbonitrile] the value was 20 to 60%; for `CO[C@@H]1CN(c2nc(F)c(Cl)c(Nc3ccc4c(c3)CC(=O)N4C)n2)CC[C@H]1Nc1ccc2c(N3CCC(=O)NC3=O)nn(C)c2c1` [Example 158, 1-(6-(((3R,4R)-1-(5-chloro-4-fluoro-6-((1-methyl-2-oxoindolin-5-yl)amino)pyrimidin-2-yl)-3-methoxypiperidin-4-yl)amino)-1-methyl-1H-indazol-3-yl) dihydropyrimidine-2,4(1H,3H)-dione], 20 to 60%; for `CO[C@@H]1CN(c2nc(F)c(Cl)c(Nc3ccc4c(c3)CC(=O)N4C)n2)CC[C@H]1Nc1ccc2c(C3(C)CCC(=O)NC3=O)nn(C)c2c1` (stereo partly drawn) [Example 159, 3-(6-(((3R,4R)-1-(5-chloro-4-fluoro-6-((1-methyl-2-oxoindolin-5-yl)amino)pyrimidin-2-yl)-3-methoxypiperidin-4-yl)amino)-1-methyl-1H-indazol-3-yl)-3-methylpiperidine-2,6-dione], 20 to 60%.
